Assay results taken from patent publication US11759651B2, “In vivo visualization and control of pathological changes in neural circuits” (THE REGENTS OF THE UNIVERSITY OF CALIFORNIA, priority 2011, dated 2023).
Read-outs that look alike come from different tables or passages of the source.

Assays:
[1] = system: hippocampal network activity; settings: cited from earlier work
APP^L/S mice [2] = experiment: Choline acetyltransferase immunostaining of basal forebrain sections; assay type: in vivo, mouse; settings: APP^L/S mice treated with LM11A-31
Protocol: Scale bars=25 μm. b, Photomicrograph of choline acetyltransferase-immunostained basal forebrain sections. […] Statistical significance was determined using ANOVA and post-hoc Student-Neuman-Keuls testing.

APPL/S mice = experiment: Object recognition test; assay type: in vivo, mouse; settings: ANOVA and post-hoc Student-Neuman-Keuls testing
APP/PS1 mice = experiment: LTP in the hippocampus; assay type: in vivo, mouse; settings: APP/PS1-vehicle vs. APP/PS1-LM11A-31, p=0.02, wt-vehicle vs. wt-LM11A-31, NS
APP^L/S mice [3] = experiment: APP immunolabeling for dystrophic neurites and Thioflavin S staining for amyloid plaques in hippocampus; assay type: in vivo; settings: APP^L/S mice given vehicle or LM11A-31; transgenic mouse model of AD
[4] = 10 μM NBQX and 25 μM D-AP5 applied together, stimulus pulse applied to DG, 400 μm-thick ventral hippocampal slice

**Q.** Which VSDI signal [1, 4] does the source give for `NC(CCCP(=O)(O)O)C(=O)O` [D-AP5] here?
**A.** abolished

**Q.** For `NS(=O)(=O)c1cccc2c1c([N+](=O)[O-])cc1nc(O)c(O)nc12` [NBQX], which VSDI signal [1, 4] is on record?
**A.** abolished

**Q.** With `CC[C@H](C)[C@H](N)C(=O)NCCN1CCOCC1` [LM11A-31] as the compound, how does the “length, volume and branching of cholinergic neurites in the basal forebrain” value (APP^L/S mice [2]) read?
**A.** increased length, volume, and branching of cholinergic neurites

**Q.** And the object recognition deficits (APPL/S mice)?
**A.** prevented object recognition deficits

**Q.** And the LTP (APP/PS1 mice)?
**A.** normalizes LTP

**Q.** What about the “dystrophic neurites and amyloid plaque formation in the hippocampus” value (APP^L/S mice [3]) of the same compound?
**A.** rescued significantly

**Q.** Which VSDI signal [1] does the source give for `COc1ccc(-c2ccc(=N)n(CCCC(=O)O)n2)cc1` [GABAzine] here?
**A.** confirmed signal extinction
